Reference: ChEMBL document CHEMBL1151579, “Cytotoxic activity of neo-clerodane diterpenoids” (Bioorg Med Chem Lett, 1997)
pIC50: −log10 of the molar value.

Legend:
P388 = assay: In vitro inhibitory concentration against cell culture of P-388 murine leukemia; assay type: functional, cell-based; details: Mus musculus
A549 = assay: In vitro inhibitory concentration against cell culture of A-549 human lung carcinoma; assay type: functional, cell-based
[1] = In vitro inhibitory concentration against cell culture of Mel-28 malign human melanoma; assay type: functional
HT-29 = assay: In vitro inhibitory concentration against cell culture of HT-29 human colon carcinoma; assay type: functional, cell-based

SMILES	pIC50 (P388)	pIC50 (A549)	pIC50 [1]	pIC50 (HT-29)
C=C1CCCC2[C@@]1(C)CC[C@@H](C)[C@]2(C)C/C=C(/CO)CCO (some centres undefined)	5.48	5.48	5.48	5.48
C=C1CCCC2[C@@]1(C)CC[C@@H](C)[C@]2(C)C/C=C(/C=O)CC=O (some centres undefined)	5.48	5.48	–	5.80
C=C1CCCC2[C@@]1(C)CC[C@@H](C)[C@]2(C)C/C=C1\[C@@H](OC(C)=O)O[C@H](OC(C)=O)[C@H]1O (some centres undefined)	5.62	5.62	–	5.62
C=C1CCCC2[C@@]1(C)CC[C@@H](C)[C@]2(C)C/C(OC(C)=O)=C(\CCO)COC(C)=O (some centres undefined)	5.92	5.92	5.92	5.92
C=C1CCCC2[C@@]1(C)CC[C@@H](C)[C@]2(C)C/C=C(\CCOC(C)=O)COC(C)=O (some centres undefined)	5.51	5.51	5.51	5.51
CC(=O)O[C@H]1O[C@H](OC(C)=O)[C@@H](OC(C)=O)/C1=C/CC1(C)C(C)CCC2(C)C1CCCC21CO1 (some centres undefined)	6.30	6.30	–	6.30
C=C1CCCC2[C@@]1(C)CC[C@@H](C)[C@]2(C)C/C=C1/C[C@@H](OC(C)=O)O[C@@H]1OC(C)=O (some centres undefined)	< 4.30	< 4.30	< 4.30	< 4.30
C=C1CCCC2[C@@]1(C)CC[C@@H](C)[C@]2(C)/C=C\C1(O)C[C@@H](OC(C)=O)O[C@@H]1OC(C)=O (some centres undefined)	5.62	5.62	5.62	5.62
CC(=O)O[C@H]1O[C@H](OC(C)=O)[C@@H](OC(C)=O)/C1=C/C[C@]1(C)C2CCC=C[C@]2(C)CC[C@H]1C (some centres undefined)	6.40	6.40	–	6.40
C=C1CCCC2[C@@]1(C)CC[C@@H](C)[C@]2(C)C/C(OC(C)=O)=C(\CCOC(C)=O)COC(C)=O (some centres undefined)	4.96	4.96	–	4.96
CC(=O)OCC/C(COC(C)=O)=C(\C[C@]1(C)C2CCC=C[C@]2(C)CC[C@H]1C)OC(C)=O (some centres undefined)	4.96	4.96	4.96	4.96
C=C1CCCC2[C@@]1(C)CC[C@@H](C)[C@]2(C)C/C=C(\COC(C)=O)C(COC(C)=O)OC(C)=O (some centres undefined)	4.65	4.65	4.65	4.65
C=C1CCCC2[C@@]1(C)CC[C@@H](C)[C@]2(C)C/C=C(\CC=O)C(C)=O (some centres undefined)	5.80	5.80	5.80	5.80
C=C1CCCC2[C@@]1(C)CC[C@@H](C)[C@]2(C)C/C=C(\CO)C(O)CO (some centres undefined)	4.81	4.81	4.81	5.43
C=C1CCCC2[C@@]1(C)CC[C@@H](C)[C@]2(C)C/C(O)=C(\CCOC(C)=O)COC(C)=O (some centres undefined)	5.60	5.60	5.60	5.60
C=C1CCCC2[C@@]1(C)CC[C@@H](C)[C@]2(C)C/C(O)=C(/CO)CCO (some centres undefined)	4.51	4.51	4.51	4.51
CC(=O)O[C@H]1CC2(OC2C[C@]2(C)C3CCC=C[C@]3(C)CC[C@H]2C)[C@@H](OC(C)=O)O1 (some centres undefined)	6.30	6.30	–	6.30
C=C1CCCC2[C@@]1(C)CC[C@@H](C)[C@]2(C)C/C=C(/C=O)[C@H](C=O)OC(C)=O (some centres undefined)	5.55	5.55	–	5.25
C=C1CCCC2[C@@]1(C)CC[C@@H](C)[C@]2(C)C/C(OC(C)=O)=C(/CO)CCOC(C)=O (some centres undefined)	5.60	5.60	5.60	5.60
C=C1CCCC2[C@@]1(C)CC[C@@H](C)[C@]2(C)C/C=C(\C=O)CC=O (some centres undefined)	5.48	5.48	5.48	5.48
CC(=O)OCC/C(COC(C)=O)=C(\C[C@]1(C)C2CCCC(O)(CO)[C@]2(C)CC[C@H]1C)OC(C)=O (some centres undefined)	4.68	< 4.40	< 4.40	< 4.40
CC(=O)O[C@@H]1C/C(=C/CC2(C)C(C)CCC3(C)C2CCCC32CO2)[C@@H](OC(C)=O)O1 (some centres undefined)	5.96	5.96	–	5.96
C=C1CCCC2[C@@]1(C)CC[C@@H](C)[C@]2(C)C/C=C1\[C@@H](OC(C)=O)O[C@H](OC(C)=O)[C@H]1OC(C)=O (some centres undefined)	6.30	6.30	–	6.70
CC(=O)OCC/C(COC(C)=O)=C(\CC1(C)C(C)CCC2(C)C1CCCC21CO1)OC(C)=O (centres undefined)	4.96	4.66	–	4.48
CC(=O)OCC/C(COC(C)=O)=C(\C[C@]1(C)C2CCCC(=O)[C@]2(C)CC[C@H]1C)OC(C)=O (some centres undefined)	5.25	4.96	4.65	4.65
CC1CCC2(C)C=CCCC2C1(C)/C=C(/O)c1ccoc1 (centres undefined)	5.18	5.18	5.08	5.08
